{
  "source": "patent US20240269139A1",
  "about": "“COMPOUNDS FOR TARGETED PROTEIN DEGRADATION OF KINASES” (DANA-FARBER CANCER INSTITUTE, INC., priority 2020, published 2024)",
  "key": {"[1]": {"molecular_target": "protein kinases (human kinome) (Homo sapiens, UniProt O94921)", "sequence (O94921 whole entry)": "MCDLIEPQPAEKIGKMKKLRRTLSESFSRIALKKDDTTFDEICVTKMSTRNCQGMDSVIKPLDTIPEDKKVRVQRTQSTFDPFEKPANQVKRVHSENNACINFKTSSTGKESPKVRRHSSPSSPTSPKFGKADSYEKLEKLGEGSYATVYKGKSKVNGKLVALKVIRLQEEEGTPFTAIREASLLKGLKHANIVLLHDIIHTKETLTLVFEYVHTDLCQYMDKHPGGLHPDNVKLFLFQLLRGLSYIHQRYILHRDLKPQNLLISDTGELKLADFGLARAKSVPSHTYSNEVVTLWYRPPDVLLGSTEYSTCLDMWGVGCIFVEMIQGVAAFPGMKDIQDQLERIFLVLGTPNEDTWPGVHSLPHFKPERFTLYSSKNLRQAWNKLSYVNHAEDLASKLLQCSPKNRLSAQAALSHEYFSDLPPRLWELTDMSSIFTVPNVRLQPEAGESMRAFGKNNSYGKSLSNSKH", "type": "cell-based", "conditions": "experiment wp076"}, "[2]": {"molecular_target": "protein kinases (human kinome) (Homo sapiens, UniProt P35790)", "sequence (P35790 whole entry)": "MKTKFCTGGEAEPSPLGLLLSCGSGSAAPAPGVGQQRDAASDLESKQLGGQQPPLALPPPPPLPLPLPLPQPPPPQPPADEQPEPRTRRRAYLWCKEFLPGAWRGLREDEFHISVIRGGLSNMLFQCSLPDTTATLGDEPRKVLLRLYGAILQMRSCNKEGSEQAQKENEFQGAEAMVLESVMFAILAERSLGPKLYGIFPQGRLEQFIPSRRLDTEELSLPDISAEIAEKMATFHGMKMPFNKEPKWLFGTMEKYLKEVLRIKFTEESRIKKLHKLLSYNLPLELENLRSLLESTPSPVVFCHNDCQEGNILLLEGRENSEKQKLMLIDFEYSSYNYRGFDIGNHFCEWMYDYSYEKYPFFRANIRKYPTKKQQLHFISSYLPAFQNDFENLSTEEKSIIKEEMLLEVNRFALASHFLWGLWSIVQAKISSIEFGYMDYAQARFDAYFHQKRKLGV", "type": "cell-based", "conditions": "CHKA P35790; experiment wp076"}},
  "data": [
    {"smiles": "O=C1CCC(N2C(=O)c3cccc(NCCCCCCCCN4CCC(NC(=O)c5[nH]ncc5NC(=O)c5c(Cl)cccc5Cl)CC4)c3C2=O)C(=O)N1", "note": "(stereo not drawn) [MFH.5.126.1]", "values": [
      {"measurement": "logFC", "setting": "[1]; CDK14 (O94921-1)", "result": "−0.3413"},
      {"measurement": "logFC of CDK14 (O94921-1)", "setting": "[1]", "result": "−0.3413"},
      {"measurement": "logFC", "setting": "[2]", "result": "−0.4653"}
    ]}
  ]
}
